Reference: patent US8420606B2, “Method of utilizing physiological activity of rare saccharide and composition containing rare saccharide” (priority 2002, dated 2013)
Entries after “also recorded” stand apart in the source; their conditions may differ.

Legend:
[1] = test system: ovary cancer cells (OVCAR3); experiment: proliferation of cultured cells, MTT method, OVCAR3; format: cell-based; conditions: for proliferation of OVCAR3 cells (cell number over time): saccharide 50 mM, 4 to 5 days, MTT
Experimental: Various kinds of rare saccharides were added at a concentration of 50 mM to culture media under the following conditions, and an influence of each rare saccharide upon the progress of proliferation of cancer cell strains was examined.
(1) Target cells to which the rare saccharides were added: Hepatic cancer cells (HepG2), uterine cancer cells (He1a), ovary cancer cells (OVCAR3), and skin keratinocyte (HaCaT) were selected as target cells to which the rare saccharides were added.
(2) Rare saccharides added: In addition to D-allose, glucose and D-altros as rare saccharides belonging to ketose were added, as other comparative saccharides, to the addition target cells. Also, D-fructose was employed as a control.
(3) Experiment method: A number 3,000-5,000 of addition target cells per type were inoculated into a multi-well plastic dish (hereinafter referred to as a “well”) having 96 wells, and were cultured for 4 to 5 days in a culture medium supplemented with 5 to 10% of Fetal Bovine Serum (FBS) depending on the cell types. D-Allose, D-glucose and D-altros were each added at concentration of 50 mM to the addition target cells per type. Similarly, D-fructose as a control was added at a concentration of 50 mM. To examine the influence upon the cell proliferation, the cell number was measured in units of 24 hours by using the MTT method described below.
(1) Preparation of reagents: A predetermined amount of MTT (tetrazolium salt) was dissolved in PBS(−) sterilized in an autoclave to obtain an MTT solution through filtering and sterilization. An acidic solution was prepared by adding 50 mL of N,N-dimethylformaldehyde and water to a predetermined amount of (20 g) of SDS, thereby obtaining a 100 mL of solution. About […] of 1N hydrochloric acid was added to the solution for adjustment of a pH-value to 4.7. The solution was preserved at room temperature and warmed up to 37° C. just before the use.
(2) Test method: The cells were treated with TEP to prepare a cell suspension liquid. This cell suspension liquid was pipetted in a predetermined cell-density (300 to 52000 cells/well) to each well (96-well plate: 0.1 mL of culture medium per well). The saccharide as a drug was added in a predetermined amount to each well, followed by cultivation for a whole day and night in a CO2 incubator. Then, 0.5 mg/mL of the MTT solution was added and the resulting culture was incubated for 4 hours in the incubator. Thereafter, the culture medium was completely removed. Then, in a room kept at 37° C., an acid solution was added in amount of 0.1 mL/well. The well plate was placed on a micro-plate mixer and shaken at 37° C. for 20 minutes to dissolve a colored substance (namely, to dissolve “formazan” in the acid solution). The absorbance of the liquid was measured at a wavelength of 570 to 600 nm by using a spectrophotometer. After dissolving the colored substance (formazan) in the acid solution, the absorbance can be measured directly by a plate reader.
(1) Experiment method: The ovary cancer cells (OVCAR3) were selected as target cells to which a rare saccharide was added, and D-allose as the saccharide was added at concentrations of 1 mM, 5 mM, 10 mM, 20 mM, 50 mM and 100 mM. The experimental conditions, such as the method of culturing the ovary cancer cells (OVCAR3) and the method of measuring the cell number (MTT method), were the same as those in Example 1.

[2] = test system: hippocampus neurons; experiment: temporary brain ischemia, survival of hippocampus neurons; format: in vivo, gerbil; conditions: for necrosis of hippocampus neurons caused by ischemia: 200 mg/kg before ischemia, 5 minutes ischemia, after 1 week
Experimental: (2) Method: The bilateral common carotid artery of a gerbil was shut off for 5 minutes. After 1 week, the gerbil was sacrificed and a sample was prepared in accordance with the ordinary method, followed by hematoxyline eosin dyeing. The survival rate was measured by counting the number of hippocampus neurons while looking at them under a microscope. Experiments were performed on a normal control group, a group subjected to only ischemia, and a group administrated with 200 mg/kg of D-allose or D-psicose before ischemia. It is known that glutamates released in large amount from the neurons with ischemia are toxic to the neurons. Such a point was examined by fixing the gerbil to a brain position fixing device, perfusing a solution, in which oxidase glutamate is dissolved, to the hippocampus through a probe for micro-dialysis, and measuring the glutamate concentration outside the hippocampus neurons. Also, the inventors have clarified the relationship between the metabolism of glucose and the action mechanism of D-allose with ischemia by pre-administrating D-allose and 2-deoxiglucose.

[3] = test system: Pancreas β-cell strains INS-1; experiment: insulin secretion from pancreas β-cell strain, ELISA; format: cell-based, rat; conditions: for concentration at which insulin secretion stimulus reached a plateau / insulin secretion into culture medium: saccharide alone; for insulin secretion into culture medium: 2.8-16.7 mM
Experimental: Pancreas β-cell strains INS-1 derived from insulinoma were cultured under the culture medium condition of (DMEM +10% FBS) in accordance with the ordinary method. The INS-1 cells at density of about 70% were pipitted into a 96-well culture dish, and the following experiments were performed. D-psicose was used as the ketohexose belonging to the rare saccharides.
After cultivation for 24 hours with the glucose concentration in the culture medium set to 2.8 mM, 5.6 mM, 11.2 mM and 16.7 mM, the insulin concentration in the culture medium was measured by using an ELISA (insulin kit).
By using the ELISA method, the insulin concentration in the culture medium was measured while the D-psicose concentration in the culture medium was changed to 0 mM, 2.8 mM, 5.6 mM, 11.2 mM and 16.7 mM.

[4] = intravenous grape sugar load test (IVGTT); format: in vivo, rat; conditions: 0.5 g/kg intravenous, rats fasted 16 hours
Experimental: (2) Method: 1) Intravenous grape sugar load test (IVGTT) . . . IVGTT was conducted on 8-week old male SD rats by inserting a catheter through the jugular vein. A rare saccharide was administrated to 3 rats, and glucose was administrated to other 3 rats.
Perform intravenous injection (IV) at 0.5 g/kg (i.e., 0.5 g/1000 g=500 mg/1000 g=0.5 mg/g).
Prepare rare-saccharide and glucose solutions in concentration of 0.5 g/mL (i.e., 0.5 g/1000 ul=500 mg/1000 ul=0.5 mg/ul). Prepare 2 mL of solution for each concentration.
Intravenously inject 200 ul of the solution for a 200 g rat.
Intravenously inject 250 ul of the solution for a 250 g rat.
Inject 300 ul of physiological saline after the intravenous injection.
Collect 150 ul of blood sample.
Abstain each rat from food for 16 hours as pretreatment. Allow to drink water.
Collect blood at 9 points in time, i.e., 0, 5, 10, 15, 20, 25, 30, 45 and 60 minutes.

SMILES | concentration at which the cancer-cell proliferation inhibitory effect was first found ([1]; OVCAR3, 1, 5, 10, 20, 50, 100 mM tested, 10% fetal bovine serum) | dead cells (microscope, trypan blue-exclusion assay) ([1]; OVCAR3 cells to which D-allose was applied) | proliferation of OVCAR3 cells (cell number over time) [1] | necrosis of hippocampus neurons caused by ischemia [2] | hippocampus neurons alive after ischemia ([2]; ischemia for 5 minutes, rat brains as printed, solution containing D-allose perfused before the ischemia, 80% died without) | concentration at which insulin secretion stimulus reached a plateau [3] | insulin secretion into culture medium ([3]; 24 hours) | blood sugar value in IVGTT [4] | insulin concentration in the blood during IVGTT [4] | insulin secretion with D-psicose added to glucose ([3]; glucose fixed at 11.2 mM, psicose 2.8-16.7 mM, 24 hours)
O=C[C@H](O)[C@H](O)[C@H](O)[C@H](O)CO [D-allose] | 10 mM | dead cells hardly existed | strongly inhibited proliferation; also recorded: has a proliferation inhibitory effect | significantly inhibited necrosis | 70% | – | – | – | – | –
O=C[C@H](O)[C@@H](O)[C@H](O)[C@H](O)CO [D-glucose, reference compound] | – | – | acted so as to promote the proliferation of the cancer cells | – | – | 11.2 mM | the insulin secretion from the cells was stimulated | increased | a rise of the insulin concentration was found | –
O=C(CO)[C@H](O)[C@H](O)[C@H](O)CO [D-psicose] | – | – | – | not found; also recorded: not confirmed | – | 11.2 mM | insulin was secreted depending on the D-psicose concentration; also recorded: a reaction of secreting insulin depending on the concentration of D-psicose was found | no rise of the blood sugar value was found | influences upon the insulin secretion were not found | further stimulated in an additive way; also recorded: further promoted
